# Laboratory results from ChEMBL document CHEMBL3244247, “Beta-Adrenergic blocking agents. 15. 1-Substituted ureidophenoxy-3-amino-2-propanols” (1977).
# Experiments:
# Felis catus [1] = experiment: In vivo inhibition of beta-1 adrenergic receptor in cat assessed as inhibition of isoproterenol-induced tachycardia administered as 30 mins of infusion measured at 30 mins by cardiotachometer; assay type: functional; conditions: 0.5 h
# Felis catus [2] = experiment: In vivo inhibition of beta-2 adrenergic receptor in cat assessed as inhibition of isoproterenol-induced vasodepressor response at ED50 administered as 30 mins of infusion measured at 30 mins relative to control; assay type: functional
SMILES,ED50 (Felis catus [1]),inhibition (INH) (Felis catus [2])
CC(C)NCC(O)COc1ccc(NC(N)=O)cc1 (centres undefined),0.631 mg/kg,20%
CC(C)(C)NCC(O)COc1ccc(NC(N)=O)cc1 (centres undefined),0.101 mg/kg,0%
CNC(=O)Nc1ccc(OCC(O)CNC(C)C)cc1 (centres undefined),0.07 mg/kg,29%
CNC(=O)Nc1ccc(OCC(O)CNC(C)(C)C)cc1 (centres undefined),0.074 mg/kg,0%
CNC(=O)Nc1ccc(OCC(O)CNC(C)C)c(Cl)c1 (centres undefined),0.104 mg/kg,26%
CNC(=O)Nc1ccc(OCC(O)CNC(C)(C)C)c(Cl)c1 (centres undefined),0.025 mg/kg,52%
CNC(=O)Nc1ccc(OCC(O)CNC(C)C)c(Br)c1 (centres undefined),0.033 mg/kg,63%
CNC(=O)Nc1ccc(OCC(O)CNC(C)C)c(I)c1 (centres undefined),0.1 mg/kg,33%
CNC(=O)Nc1ccc(OCC(O)CNC(C)C)c(C)c1 (centres undefined),0.17 mg/kg,32%
CCCc1cc(NC(=O)NC)ccc1OCC(O)CNC(C)(C)C (centres undefined),0.093 mg/kg,7%
CNC(=O)Nc1ccc(OCC(O)CNC(C)C)c(C(C)=O)c1 (centres undefined),0.395 mg/kg,43%
C=CCc1cc(NC(=O)NC)ccc1OCC(O)CNC(C)(C)C (centres undefined),0.056 mg/kg,74%
CCNC(=O)Nc1ccc(OCC(O)CNC(C)C)cc1 (centres undefined),0.427 mg/kg,0%
CCNC(=O)Nc1ccc(OCC(O)CNC(C)(C)C)cc1 (centres undefined),0.201 mg/kg,34%
CCNC(=O)Nc1ccc(OCC(O)CNC(C)C)c(Cl)c1 (centres undefined),0.188 mg/kg,0%
CCNC(=O)Nc1ccc(OCC(O)CNC(C)C)c(Br)c1 (centres undefined),0.069 mg/kg,19%
CCNC(=O)Nc1ccc(OCC(O)CNC(C)(C)C)c(I)c1 (centres undefined),0.023 mg/kg,6%
CCNC(=O)Nc1ccc(OCC(O)CNC(C)C)c(C)c1 (centres undefined),0.234 mg/kg,27%
CCNC(=O)Nc1ccc(OCC(O)CNC(C)(C)C)c(C)c1 (centres undefined),0.057 mg/kg,58%
CCNC(=O)Nc1ccc(OCC(O)CNC(C)COP)c(C)c1 (centres undefined),0.885 mg/kg,18%
CCNC(=O)Nc1ccc(OCC(O)CNC(C)C)c(CC)c1 (centres undefined),0.118 mg/kg,33%

SMILES,ED50 (Felis catus [1]),inhibition (INH) (Felis catus [2])
CCNC(=O)Nc1ccc(OCC(O)CNC(C)(C)C)c(CC)c1 (centres undefined),0.08 mg/kg,2%
C=CCc1cc(NC(=O)NCC)ccc1OCC(O)CNC(C)C (centres undefined),0.18 mg/kg,68%
C=CCc1cc(NC(=O)NCC)ccc1OCC(O)CNC(C)(C)C (centres undefined),0.038 mg/kg,30%
C=CCc1cc(NC(=O)NCC)ccc1OCC(O)CNC(C)(C)CO (centres undefined),0.224 mg/kg,50%
C=CCc1cc(NC(=O)NCC)ccc1OCC(O)CNC1CC1 (centres undefined),1.14 mg/kg,37%
CCNC(=O)Nc1ccc(OCC(O)CNC(C)C)c(OCC)c1 (centres undefined),0.295 mg/kg,41%
CCNC(=O)Nc1ccc(OCC(O)CNC(C)C)c(O)c1 (centres undefined),0.521 mg/kg,15%
CCNC(=O)Nc1ccc(OCC(O)CNC(C)C)c(SC)c1 (centres undefined),0.198 mg/kg,32%
CCCNC(=O)Nc1ccc(OCC(O)CNC(C)C)cc1 (centres undefined),0.147 mg/kg,0%
CCCNC(=O)Nc1ccc(OCC(O)CNC(C)(C)C)cc1 (centres undefined),0.033 mg/kg,0%
CCCNC(=O)Nc1ccc(OCC(O)CNC(C)C)c(I)c1 (centres undefined),0.077 mg/kg,100%
CCCNC(=O)Nc1ccc(OCC(O)CNC(C)C)c(C)c1 (centres undefined),0.061 mg/kg,59%
CCCNC(=O)Nc1ccc(OCC(O)CNC(C)(C)C)c(C)c1 (centres undefined),0.044 mg/kg,0%
C=CCc1cc(NC(=O)NCCC)ccc1OCC(O)CNC(C)C (centres undefined),0.213 mg/kg,15%
CCCCNC(=O)Nc1ccc(OCC(O)CNC(C)C)cc1 (centres undefined),0.416 mg/kg,0%
CCCCNC(=O)Nc1ccc(OCC(O)CNC(C)(C)C)cc1 (centres undefined),0.048 mg/kg,0%
CCCCNC(=O)Nc1ccc(OCC(O)CNC(C)(C)C)c(Cl)c1 (centres undefined),0.008 mg/kg,0%
CCCCNC(=O)Nc1ccc(OCC(O)CNC(C)C)c(C)c1 (centres undefined),0.046 mg/kg,0%
CCCCNC(=O)Nc1ccc(OCC(O)CNC(C)(C)C)c(C)c1 (centres undefined),0.012 mg/kg,11%
CCCCCCNC(=O)Nc1ccc(OCC(O)CNC(C)C)cc1 (centres undefined),0.274 mg/kg,0%
CCCCCCNC(=O)Nc1ccc(OCC(O)CNC(C)(C)C)cc1 (centres undefined),0.094 mg/kg,30%

SMILES,ED50 (Felis catus [1]),inhibition (INH) (Felis catus [2])
CCCCCCNC(=O)Nc1ccc(OCC(O)CNC(C)C)c(C)c1 (centres undefined),0.189 mg/kg,19%
CCCCCCNC(=O)Nc1ccc(OCC(O)CNC(C)(C)C)c(C)c1 (centres undefined),0.03 mg/kg,50%
CCCCCCNC(=O)Nc1ccc(OCC(O)CNC(C)C)c(C(C)=O)c1 (centres undefined),0.182 mg/kg,0%
CCCCCCCCNC(=O)Nc1ccc(OCC(O)CNC(C)C)c(C)c1 (centres undefined),0.169 mg/kg,28%
CCCCCCCCNC(=O)Nc1ccc(OCC(O)CNC(C)(C)C)c(C)c1 (centres undefined),0.08 mg/kg,11%
CC(C)NC(=O)Nc1ccc(OCC(O)CNC(C)(C)C)cc1 (centres undefined),0.095 mg/kg,24%
Cc1cc(NC(=O)NC(C)C)ccc1OCC(O)CNC(C)C (centres undefined),0.438 mg/kg,57%
Cc1cc(NC(=O)NC(C)C)ccc1OCC(O)CNC(C)(C)C (centres undefined),0.049 mg/kg,5%
C=CCNC(=O)Nc1ccc(OCC(O)CNC(C)C)cc1 (centres undefined),0.262 mg/kg,70%
C=CCNC(=O)Nc1ccc(OCC(O)CNC(C)(C)C)cc1 (centres undefined),0.089 mg/kg,6%
C=CCNC(=O)Nc1ccc(OCC(O)CNC(C)C)c(Cl)c1 (centres undefined),0.131 mg/kg,43%
C=CCNC(=O)Nc1ccc(OCC(O)CNC(C)(C)C)c(Cl)c1 (centres undefined),0.022 mg/kg,19%
C=CCNC(=O)Nc1ccc(OCC(O)CNC(C)C)c(C)c1 (centres undefined),0.107 mg/kg,12%
C=CCNC(=O)Nc1ccc(OCC(O)CNC(C)(C)C)c(C)c1 (centres undefined),0.045 mg/kg,32%
CC(C)(C)NCC(O)COc1ccc(NC(=O)Nc2ccc(Cl)cc2)cc1 (centres undefined),0.403 mg/kg,39%
CC(C)NCC(O)COc1ccc(NC(=O)NC2CCCCC2)cc1Cl (centres undefined),0.252 mg/kg,14%
CCNC(=O)Nc1ccccc1OCC(O)CNC(C)C (centres undefined),3.24 mg/kg,103%
CC(C)NCC(O)COc1cccc(NC(N)=O)c1 (centres undefined),0.028 mg/kg,58%
CC(=O)Nc1ccc(OCC(O)CNC(C)C)cc1 (centres undefined) [PRACTOLOL],0.167 mg/kg,8%
CC(C)NCC(O)COc1cccc2ccccc12 (centres undefined) [PROPRANOLOL],0.062 mg/kg,85%
